What all share (type): biochemical
The target in assay [1] is T1, ABHD6 (Homo sapiens, UniProt Q9BV23).
T1 construct: Proteomes (human prefrontal cortex or cell membrane fractions); endogenous in cells; human prefrontal cortex
T1 sequence (Q9BV23 1-337): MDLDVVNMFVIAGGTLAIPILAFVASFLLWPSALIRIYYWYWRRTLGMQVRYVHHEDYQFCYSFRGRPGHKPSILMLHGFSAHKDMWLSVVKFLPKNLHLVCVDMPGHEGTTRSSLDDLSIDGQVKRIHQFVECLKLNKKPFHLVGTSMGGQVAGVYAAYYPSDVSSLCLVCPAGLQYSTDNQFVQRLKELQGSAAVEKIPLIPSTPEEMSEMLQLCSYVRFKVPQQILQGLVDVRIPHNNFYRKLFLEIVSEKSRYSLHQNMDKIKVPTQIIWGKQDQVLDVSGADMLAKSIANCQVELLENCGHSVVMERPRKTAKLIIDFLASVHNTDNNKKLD
As to the kind of experiment: In vitro competitive activity-based protein profiling (human), ABHD6. To be noted: human PC3. As to the method: (§1) In Vitro Competitive Activity-Based Protein Profiling (Human).
(§2) Proteomes (human prefrontal cortex or cell membrane fractions) (50 μL, 1.0-2.0 mg/mL total protein concentration) were preincubated with varying concentrations of inhibitors at 37° C. After 30 min, FP-Rh or JW912 (1.0 μL, 50 μM in DMSO) was added and the mixture was incubated for another 30 min at room temperature. Reactions were quenched with SDS loading buffer (15 μL-4×) and run on SDS-PAGE. Following gel imaging, serine hydrolase activity was determined by measuring fluorescent intensity of gel bands corresponding to MAGL and ABHD6 using ImageJ 1.49 k software.

The target in assay [2] is T2, MAGL (Homo sapiens, UniProt Q99685).
T2 construct: Proteomes (human prefrontal cortex or cell membrane fractions); from tissue
T2 sequence (Q99685 1-303): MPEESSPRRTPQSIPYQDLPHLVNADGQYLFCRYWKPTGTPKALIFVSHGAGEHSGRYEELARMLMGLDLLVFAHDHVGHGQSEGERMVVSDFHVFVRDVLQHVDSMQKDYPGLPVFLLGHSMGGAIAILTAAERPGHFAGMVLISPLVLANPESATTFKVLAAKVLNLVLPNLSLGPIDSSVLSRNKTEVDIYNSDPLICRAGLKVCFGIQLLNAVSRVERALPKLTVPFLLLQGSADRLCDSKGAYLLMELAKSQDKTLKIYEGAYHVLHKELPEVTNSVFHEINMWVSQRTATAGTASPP
As to the kind of experiment: In vitro competitive activity-based protein profiling (human), MAGL. To be noted: for IC50: human PC3; for inhibition at 1 µM: 1 μM inhibitor, human proteome, 30 min preincubation at 37° C, read-out: MAGL % inh. 1 μM (human). As for the experimental part:
as §1, §2

In assay [3] the target is T3, ABHD6 (Mus musculus, UniProt Q8R2Y0).
T3 construct: Proteomes (mouse brain membrane fraction or cell lysates); from tissue; host or cells: mouse brain membrane fraction or cell lysates
T3 sequence (Q8R2Y0 1-336): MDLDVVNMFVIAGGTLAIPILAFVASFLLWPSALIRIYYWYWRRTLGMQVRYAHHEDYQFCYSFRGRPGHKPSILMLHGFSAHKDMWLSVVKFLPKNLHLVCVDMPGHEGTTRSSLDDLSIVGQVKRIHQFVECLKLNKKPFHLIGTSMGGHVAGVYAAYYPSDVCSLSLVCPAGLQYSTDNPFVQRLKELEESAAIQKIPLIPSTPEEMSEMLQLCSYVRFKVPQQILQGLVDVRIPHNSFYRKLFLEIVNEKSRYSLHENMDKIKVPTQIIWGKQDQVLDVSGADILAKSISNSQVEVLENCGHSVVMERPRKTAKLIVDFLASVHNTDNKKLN
As to the kind of experiment: In vitro competitive activity-based protein profiling (mouse), ABHD6. As to conditions: 1 μM inhibitor, mouse brain membrane fraction or cell lysates; read-out: ABHD6 % inh. 1 μM (mouse). As to the method: (§3) In Vitro Competitive Activity-Based Protein Profiling (Mouse).
(§4) Proteomes (mouse brain membrane fraction or cell lysates) (50 μL, 1.0 mg/mL total protein concentration) were preincubated with varying concentrations of inhibitors at 37° C. After 30 min, FP-Rh (1.0 μL, 50 μM in DMSO) was added and the mixture was incubated for another 30 min at 37° C. Reactions were quenched with SDS loading buffer (50 μL-4×) and run on SDS-PAGE. Following gel imaging, serine hydrolase activity was determined by measuring fluorescent intensity of gel bands corresponding to MAGL and ABHD6 using ImageJ 1.49 k software. Data from this assay is shown in Table 1 (% inhibition at 1 μM).

Assay [4] addresses T4, MAGL (Mus musculus, UniProt O35678).
T4 construct: Proteomes (mouse brain membrane fraction or cell lysates); from tissue; host or cells: mouse brain membrane fraction or cell lysates
T4 sequence (O35678 1-303): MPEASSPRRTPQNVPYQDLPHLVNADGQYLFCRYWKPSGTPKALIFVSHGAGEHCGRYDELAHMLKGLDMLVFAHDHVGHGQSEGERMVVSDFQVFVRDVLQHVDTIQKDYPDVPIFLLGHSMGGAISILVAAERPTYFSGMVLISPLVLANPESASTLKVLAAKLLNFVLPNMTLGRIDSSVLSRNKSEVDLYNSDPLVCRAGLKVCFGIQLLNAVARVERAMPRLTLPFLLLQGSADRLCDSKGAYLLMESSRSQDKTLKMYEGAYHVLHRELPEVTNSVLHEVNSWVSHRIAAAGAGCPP
As to the kind of experiment: In vitro competitive activity-based protein profiling (mouse), MAGL. As to conditions: 1 μM inhibitor, mouse brain membrane fraction or cell lysates; read-out: MAGL % inh. 1 μM (mouse). As to the method: as §3, §4

With `Cc1cc(N2CCC(C(=O)O)CC2)c(CN2CCN(C(=O)OC(C(F)(F)F)C(F)(F)F)CC2)cc1F` [Example 76, 1-(4-fluoro-2-((4-(((1,1,1,3,3,3-hexafluoropropan-2-yl)oxy)carbonyl)piperazin-1-yl)methyl)-5-methylphenyl)piperidine-4-carboxylic acid], the IC50 in assay [1] is 1 to 10 µM; in assay [2], not above 0.1 µM.

Take `CCC1(C(=O)O)CCN(c2cc(CN3CCN(C(=O)OC(C(F)(F)F)C(F)(F)F)CC3)cc(C(F)(F)F)c2)CC1` [Example 53, 4-ethyl-1-(3-((4-(((1,1,1,3,3,3-hexafluoropropan-2-yl)oxy)carbonyl)piperazin-1-yl)methyl)-5-(trifluoromethyl)phenyl)piperidine-4-carboxylic acid]: the inhibition at 1 µM in assay [3], in assay [4] and in assay [2] was not below 75% in each case. Moreover, the IC50 in assay [1] was 0.1 to 1 µM; in assay [2] it was not above 0.1 µM.

In the case of `O=C(O)CN1CCC2(C1)CN(c1cc(Cl)ccc1CN1CCN(C(=O)OC(C(F)(F)F)C(F)(F)F)CC1)C2` [Example 48, 2-(2-(5-chloro-2-((4-(((1,1,1,3,3,3-hexafluoropropan-2-yl)oxy)carbonyl)piperazin-1-yl)methyl)phenyl)-2,6-diazaspiro[3.4]octan-6-yl)acetic acid], the values for the inhibition at 1 µM in assay [3], in assay [4] and in assay [2] were 0 to 25%, not below 75% and not below 75%, respectively. Also, the IC50 in assay [1] was 1 to 10 µM; in assay [2] it was not above 0.1 µM.

`O=C(O)C1CCN(c2c(CN3CCN(C(=O)OC(C(F)(F)F)C(F)(F)F)CC3)cccc2C(F)(F)F)CC1` [Example 74, 1-(2-((4-(((1,1,1,3,3,3-hexafluoropropan-2-yl)oxy)carbonyl)piperazin-1-yl)methyl)-6-(trifluoromethyl)phenyl)piperidine-4-carboxylic acid]: the inhibition at 1 µM in assay [3], in assay [4] and in assay [2] was not below 75% in each case.

`N#Cc1ccc(CN2CCN(C(=O)OC(C(F)(F)F)C(F)(F)F)CC2)c(C2(C(=O)O)CCCC2)c1` [Example 30, 1-(5-Cyano-2-((4-(((1,1,1,3,3,3-hexafluoropropan-2-yl)oxy)carbonyl)piperazin-1-yl)methyl)phenyl)cyclopentane-1-carboxylic Acid]: the inhibition at 1 µM in assay [3] was 0 to 25%; in assay [4] it was not below 75%.

Take `C#Cc1ccc(CN2CCN(C(=O)OC(C(F)(F)F)C(F)(F)F)CC2)c(N2CCC(C(=O)O)CC2)c1` [Example 82, 1-(5-ethynyl-2-((4-(((1,1,1,3,3,3-hexafluoropropan-2-yl)oxy)carbonyl)piperazin-1-yl)methyl)phenyl)piperidine-4-carboxylic acid]: the inhibition at 1 µM in assay [3] was 50 to 75%; in assay [4], not below 75%; in assay [2] it was not below 75%.

With `CN1CCN(c2cc(C(F)(F)F)ccc2CN2CCN(C(=O)OC(C(F)(F)F)C(F)(F)F)CC2)CC1C(=O)O` (stereo not shown) [Example 58, 4-(2-((4-(((1,1,1,3,3,3-hexafluoropropan-2-yl)oxy)carbonyl)piperazin-1-yl)methyl)-5-(trifluoromethyl)phenyl)-1-methylpiperazine-2-carboxylic acid], the inhibition at 1 µM in assay [3] was 0 to 25%; in assay [4], not below 75%; in assay [2], not below 75%.

Turning to `O=C(O)C1CCCCN1c1cc(C(F)(F)F)ccc1CN1CCN(C(=O)OC(C(F)(F)F)C(F)(F)F)CC1` (stereo not shown) [Example 65, 1-(2-((4-(((1,1,1,3,3,3-hexafluoropropan-2-yl)oxy)carbonyl)piperazin-1-yl)methyl)-5-(trifluoromethyl)phenyl)piperidine-2-carboxylic acid], the inhibition at 1 µM is 0 to 25% in assay [3], not below 75% in assay [4] and 50 to 75% in assay [2].

As to `N#Cc1ccc(CN2CCN(C(=O)OC(C(F)(F)F)C(F)(F)F)CC2)c(-c2ccn(CC(=O)O)n2)c1` [Example 50, 2-(3-(5-cyano-2-((4-(((1,1,1,3,3,3-hexafluoropropan-2-yl)oxy)carbonyl)piperazin-1-yl)methyl)phenyl)-1H-pyrazol-1-yl)acetic acid], the inhibition at 1 µM in assay [3], in assay [4] and in assay [2] was not below 75% each time.

For `O=C(O)C1CCN(c2cc(Cl)c(F)cc2CN2CCN(C(=O)OC(C(F)(F)F)C(F)(F)F)CC2)CC1` [Example 60, 1-(5-chloro-4-fluoro-2-((4-(((1,1,1,3,3,3-hexafluoropropan-2-yl)oxy)carbonyl)piperazin1-yl)methyl)phenyl)piperidine-4-carboxylic acid], the inhibition at 1 µM in assay [3], in assay [4] and in assay [2] was not below 75% throughout.

As to `O=C(O)C1CCN(c2c(Cl)cccc2CN2CCN(C(=O)OC(C(F)(F)F)C(F)(F)F)CC2)CC1` [Example 75, 1-(2-chloro-6-((4-(((1,1,1,3,3,3-hexafluoropropan-2-yl)oxy)carbonyl)piperazin-1-yl)methyl)phenyl)piperidine-4-carboxylic acid], the inhibition at 1 µM in assay [3] was 50 to 75%; in assay [4] it was not below 75%; in assay [2], not below 75%.

As to `O=C(O)CN1CCC(C2CCN(c3cc(Cl)ccc3CN3CCN(C(=O)OC(C(F)(F)F)C(F)(F)F)CC3)CC2)C1` (stereo not shown) [Example 33, 2-(3-(1-(5-Chloro-2-((4-(((1,1,1,3,3,3-hexafluoropropan-2-yl)oxy)carbonyl)piperazin-1-yl)methyl)phenyl)piperidin-4-yl)pyrrolidin-1-yl)acetic Acid], the inhibition at 1 µM was 50 to 75% in assay [3], not below 75% in assay [4] and not below 75% in assay [2].

Take `O=C(O)C1CCN(c2ccc(CN3CCN(C(=O)OC(C(F)(F)F)C(F)(F)F)CC3)cc2)CC1` [Example 77, 1-(4-((4-(((1,1,1,3,3,3-hexafluoropropan-2-yl)oxy)carbonyl)piperazin-1-yl)methyl)phenyl)piperidine-4-carboxylic acid]: the inhibition at 1 µM in assay [3] and in assay [4] was not below 75% in each case.

On to `O=C(O)C1CN(c2cc(C(F)(F)F)ccc2CN2CCN(C(=O)OC(C(F)(F)F)C(F)(F)F)CC2)C1` [Example 79, 1-(2-((4-(((1,1,1,3,3,3-hexafluoropropan-2-yl)oxy)carbonyl)piperazin-1-yl)methyl)-5-(trifluoromethyl)phenyl)azetidine-3-carboxylic acid], for which the inhibition at 1 µM in assay [3], in assay [4] and in assay [2] was not below 75% in each case.

A word on the IC50: it is the concentration that gives 50% inhibition.

For the origin of these results see patent publication US10899737B2, “Piperazine carbamates and methods of making and using same” (Lundbeck La Jolla Research Center, Inc., priority 2016, dated 2021).
